Test results from patent US11510931B2, “Compositions and methods for treating ophthalmic conditions” (MEDICON PHARMACEUTICALS, INC., priority 2016, dated 2022).

Legend:
[1] = tested on: cornea of New Zealand white rabbits; assay: Corneal touch threshold (CTT), Cochet-Bonnet aesthesiometer; format: in vivo, rabbit
Method: The analgesic effect of PS was determined by measuring the corneal touch threshold (CTT) using the Luneau Cochet-Bonnet Aeshesiometer (Western Ophthalmics, Lynwood, Wash.), an adjustable nylon monofilament with a defined diameter, which is applied in different lengths to the center of the cornea. This device is generally described in Lima L, Lange R R, Turner-Giannico A, Montiani-Ferreira F. Evaluation of standardized endodontic paper point tear test in New Zealand white rabbits and comparison between corneal sensitivity followed tear tests. Vet Ophthalmol. 2015; 18 Suppl 1:119-24.
A stimulus produced by the filament that reaches the CTT induces a corneal reflex, consisting of prompt eyelid closure. The CTT is quantified as centimeter length of the filament necessary to cause the blink reflex.
The CTT is determined before (baseline) and at various time points after the application of the test compound (PS). PS was formulated either in β-cyclodextrin (42 or 8 mg/ml) or in a nanocarrier (19 mg/ml). The test drug was formulated in a nanocarrier by the emulsion and evaporation method (Vauthier C, Bouchemal K. Methods for the Preparation and Manufacture of Polymeric Nanoparticles. Pharmaceutical Research; 2009; 26:1025-1058). The formulated stable drug suspension consisted of polylactic acid and polyethylene glycol (PLLA(10k)-PEG(2k)); sodium cholate; and PS. The vehicle control was either β-cyclodextrin or the nanocarrier without PS. Commercially available lidocaine 1% was used as a positive control.
To each eye of adult New Zealand white rabbits was applied […] drops of PS or vehicle or lidocaine, with 5 minutes between each drop. The time of the last drop was taken as the 0 time.
The analgesic effect of PS was further examined on the surface of the eye by determining the corneal touch threshold (CTT) using the Luneau Cochet-Bonnet Aesthesiometer (Western Ophthalmics, Lynwood, Wash.) an adjustable nylon monofilament with a defined diameter, which is applied in different lengths to the center of the cornea.

[2] = tested on: IL-1β; assay: IL-1β levels in the ILG of rabbits with DED (ELISA); format: in vivo, rabbit
Method: Using this model, we compared the effect of PS to that of cyclosporine and lifitegrast. Rabbits were treated for 6 days with PS as above or cyclosporine 0.05% or lifitegrast 5% eye drops 3×/day. In addition to determining TUBT, osmolarity and STT, we measured the levels of IL-8 and IL-1β in the ILGs of the rabbits harvested at euthanasia. Both of these cytokines are significant mediators of inflammation in DED. As shown in the table below, PS had statistically significant effects on TBUT, tear osmolarity, IL-8 and IL-1β levels. […] Of note, lifitegrast suppressed STT below the levels of the vehicle group and this suppression was statistically significant, but in the opposite direction for a useful therapeutic effect.
Moreover, for all three cytokines PS suppressed their unstimulated levels as well (62%, 84% and 4.7% reduction, respectively). In addition, PS suppressed the levels of IL-8 by 64% and IL-1β (not expressed by the cultured cells) by 61% in the ILG of rabbits treated with PS for 1 week compared to controls treated with vehicle (FIG. 8B). TGF-β was not detectable by the method in ILG homogenates. All these changes were statistically significant (p<0.001-0.04, except for the unstimulated TGF-β).

[3] = tested on: IL-6; assay: IL-6 in culture medium of human conjunctival cells (ELISA); format: cell-based
Method: Cells were treated with PS 1×IC50 and 2 h later TNF-α was added to the medium to a final concentration of 10 ng/ml. Culture media were harvested 24 h later and the levels of TGF-β, IL-6 and IL-8 were determined by ELISA. Of note, the levels of IL-1β were below the limit of detection.

[4] = tested on: VEGF-A; assay: Secreted VEGF in culture medium of human ovarian cancer cells (ELISA); format: cell-based; settings: PS 1.0×IC50, 24 h
Method: First, the effect of PS on VEGF production was evaluated by cultured human cancer ovarian cells, known to secrete VEGF to recruit vascular endothelial cells for angiogenesis. Therefore, VEGF is one of the most significant and direct targets in an anti-angiogenesis strategy. The experiments discovered that VEGF levels are reduced in ovarian cancer cells by PS. Secreted VEGF was assayed in the culture medium by ELISA.

[5] = tested on: cataract surgery plus LPS-induced ocular inflammation in rabbits; assay: Ocular inflammation after cataract surgery plus intravitreal LPS in rabbits; format: in vivo, rabbit; settings: PS 3.5% in nanoparticles
Method: The anti-inflammatory effect of PS in New Zealand white rabbits was evaluated following cataract surgery and administration of the proinflammatory bacterial lipopolysaccharide (LPS). Briefly, the lens was removed by phacoemulsification and aspiration and replaced with the hydrophobic acrylic intraocular lens (AR40e, AMO). Upon completion of the operation, 1 μg of LPS dissolved in 10 μl PBS was injected into the vitreous to induce uveitis.
Rabbits were treated with PS 3.5% formulated in nanoparticles or vehicle (nanoparticles without PS) applied topically as eye drops three times per day. The first application was made within 1 h after completion of surgery. The rabbits were examined daily and the aqueous humor (AH) was sampled by needle aspiration on days 1, 3, and 5 following the injection of LPS. The number of infiltrating cells in the AH was determined following standard methods. On day 5, the rabbits were euthanized and the implanted lens was removed and fixed in 2.5% glutaraldehyde and the number of inflammatory cells attached to the lens was examined under a dissecting microscope.

**Q.** Which results are given for `CCOP(=O)(OCC)OCCCCOC(=O)CC1=C(C)/C(=C/c2ccc([S+](C)[O-])cc2)c2ccc(F)cc21` (stereo not shown) [PS, phosphosulindac]?
**A.** Corneal touch threshold (CTT) ([1]; PS 8 mg/ml in β-cyclodextrin, 1 min): 5.3 ± 0.7 centimeter; Corneal touch threshold (CTT) ([1]; PS 8 mg/ml in β-cyclodextrin, 5 min): 5.4 ± 0.8 centimeter; Corneal touch threshold (CTT) ([1]; PS 8 mg/ml in β-cyclodextrin, 10 min): 5.6 ± 0.5 centimeter; Corneal touch threshold (CTT) ([1]; PS 8 mg/ml in β-cyclodextrin, 20 min): 5.6 ± 0.5 centimeter; Corneal touch threshold (CTT) ([1]; PS 8 mg/ml in β-cyclodextrin, 30 min): 5.9 ± 0.3 centimeter; Corneal touch threshold (CTT) ([1]; PS 8 mg/ml in β-cyclodextrin, 45 min): 5.9 ± 0.3 centimeter; Corneal touch threshold (CTT) ([1]; PS 8 mg/ml in β-cyclodextrin, 60 min): 5.9 ± 0.3 centimeter; Corneal touch threshold (CTT) ([1]; PS 8 mg/ml in β-cyclodextrin, baseline): 5.9 ± 0.3 centimeter; Corneal touch threshold (CTT) ([1]; PS 19 mg/ml in nanocarrier, 1 min): 5.4 ± 0.6 centimeter; Corneal touch threshold (CTT) ([1]; PS 19 mg/ml in nanocarrier, 5 min): 5.1 ± 0.8 centimeter; Corneal touch threshold (CTT) ([1]; PS 19 mg/ml in nanocarrier, 10 min): 5.3 ± 0.8 centimeter; Corneal touch threshold (CTT) ([1]; PS 19 mg/ml in nanocarrier, 20 min): 5.5 ± 0.7 centimeter; Corneal touch threshold (CTT) ([1]; PS 19 mg/ml in nanocarrier, 30 min): 5.9 ± 0.2 centimeter; Corneal touch threshold (CTT) ([1]; PS 19 mg/ml in nanocarrier, 45 min): 5.9 ± 0.4 centimeter; Corneal touch threshold (CTT) ([1]; PS 19 mg/ml in nanocarrier, 60 min): 5.9 ± 0.2 centimeter; Corneal touch threshold (CTT) ([1]; PS 19 mg/ml in nanocarrier, baseline): 5.9 ± 0.3 centimeter; Corneal touch threshold (CTT) ([1]; PS 42 mg/ml in β-cyclodextrin, 1 min): 2.7 ± 1.0 centimeter; Corneal touch threshold (CTT) ([1]; PS 42 mg/ml in β-cyclodextrin, 5 min): 3.1 ± 1.2 centimeter; Corneal touch threshold (CTT) ([1]; PS 42 mg/ml in β-cyclodextrin, 10 min): 3.7 ± 1.3 centimeter; Corneal touch threshold (CTT) ([1]; PS 42 mg/ml in β-cyclodextrin, 20 min): 4.1 ± 1.4 centimeter; Corneal touch threshold (CTT) ([1]; PS 42 mg/ml in β-cyclodextrin, 30 min): 5.1 ± 1.0 centimeter; Corneal touch threshold (CTT) ([1]; PS 42 mg/ml in β-cyclodextrin, 45 min): 5.6 ± 0.7 centimeter; Corneal touch threshold (CTT) ([1]; PS 42 mg/ml in β-cyclodextrin, 60 min): 5.9 ± 0.2 centimeter; Corneal touch threshold (CTT) ([1]; PS 42 mg/ml in β-cyclodextrin, baseline): 5.9 ± 0.2 centimeter; analgesia (CTT) ([1]; single eye drop, naïve rabbits, FIG. 10): essentially instantaneous and significant analgesia; IL-1β in the ILG ([2]; Con A DED rabbits, 6 days, eye drops 3×/day, PS nanoparticles, cyclosporine 0.05%, lifitegrast 5%, mean ± SEM): 8.4 ± 1.2 pg/mg protein; suppression of IL-1β levels in the ILG ([2]; rabbits treated with PS for 1 week vs vehicle): 61%; IL-6 reduction ([3]; TNF-α-stimulated, PS 1×IC50, media at 24 h): 95%; IL-6 reduction ([3]; unstimulated levels, PS 1×IC50): 84%; VEGF-A, % inhibition ([4]; A2780): 64%; VEGF-A, % inhibition ([4]; A2780ADR): 77%; VEGF-A, % inhibition ([4]; A2780cis): 65%; VEGF-A, % inhibition ([4]; OVCAR-3): 100%; VEGF-A, % inhibition ([4]; SKOV-3): 96%; ocular inflammation (clinical appearance) ([5]; eye drops three times per day, first 24 h of treatment, FIG. 13): essentially eliminated; number of inflammatory cells in aqueous humor (AH) ([5]; day 3, eye drops three times per day, FIG. 14): < 70000 mL⁻¹; inflammatory cells attached to the implanted lens ([5]; day 5): very few or no cells
